According to patent EP2977452A2, “METHODS OF TREATMENT AND PREVENTION OF NEURODEGENERATIVE DISEASES AND DISORDERS” (THOMAS JEFFERSON UNIVERSITY, priority 2007, dated 2008):
Entries after “also recorded” stand apart in the source; their conditions may differ.

Assays:
Assay type in all cases: in vivo
[1] = system: blood brain barrier (BBB); experiment: BBB leakage in brain of DM/HC pig model (IHC for pig immunoglobulin); conditions: DM/HC pigs
Description: (§1) Animal model: A diabetic/diabetic hypercholestrolemic pig model (DM/HC) was developed that mimics human-like atherosclerosis. Farm pigs weighing 25-30 kg and aged ∼4 months were made diabetic with a single intravenous injection of 125 mg/kg of streptozotocin (Sicor Pharmaceuticals, Irvine, CA). After stabilization for 1-2 weeks, the animals with elevated levels of plasma glucose (>150 mg/dl) were fed with atherogenic (high-fat) diet as shown in Table 1 (Animal Specialties, Quakertown, PA) to achieve a cholesterol level of approximately 250-800 mg/dl. Table 1. Diet for 2.0% cholesterol diet the components are:
(§2) At one month after stabilization of choleresterol at 250-800mg/dl, the animals were randomized into two experimental groups, DM/HC (hyperglycemia and hypercholesterolemia) group with no treatment and treatment group (10 mg/kg/day of SB-480848, also referred to as 1-(N-(2-(diethylamino)ethyl)-N-(4-(4-trifluoromethylphenyl)benzyl)-aminocarbonylmethyl)-2-(4-fluorobenzyl)thio-5,6-trimethylenepyrimidin-4-one). The animals were sacrificed at 6-month after the randomization. The animal protocol has been approved by the Institutional Animal Care and Use Committee of University of Pennsylvania.
(§3) Two diabetic/hypercholesterolemic groups were evaluated: 1. DM/HC group and 2. DM/HC animals receiving Lp-PLA2 inhibitors. The experiments included: the control group (DM/HC group - 17 pigs) and the experimental group (DM/HC animals receiving LP-PLA2 inhibitors - 20 pigs). In addition blood cholesterol levels were maintained between 300 and 800 mg/dl in experimental animals, this range having been determined to provide a better test model. Blood cholesterol levels were monitored in all animals on a bimonthly basis, as shown in Table 4 and adjustments were made to the fat content of the feed accordingly, as shown in Table 2. The cholesterol and lard percent were in the range of 0.5-2% and 10-25%, respectively, and all animals received feed that contained cholesterol and lard concentration within that range. Blood samples were obtained at baseline, 1 month, 3 months, and 6 months. Less than 1 ml/kg of blood were obtained each time. At the bimonthly blood cholesterol levels tests, levels of total cholesterol, LDL, HDL, VLDL and triglycerides, blood glucose, Lp-PLA2 and […] (PBMCs) were tested (see Table 4).
(§4) Daily dosing began on Day 29, at which time each test animal was given a daily dose of 10 mg/kg SB-480848 (given as bolus equivalent in dog food). Animals were NPO from midnight the night before. Animals were euthanized on Day 196 and tissues harvested immediately.
(§5) Brain tissue preparation. The entire brain was removed within one hour after animals were euthanized. The right hemisphere was fixed in 10% formalin for at least one week. […]

Abeta-42 = Abeta-42 accumulation in brain of DM/HC pig model (IHC); conditions: DM/HC pigs
Description: as §1, §2, §3, §4, §5

glial cells = experiment: Glial cell (astrocyte) activation in brain of DM/HC pig model (GFAP IHC); conditions: DM/HC pigs treated with Lp-PLA2 inhibitor, vs non-treated
Description: as §1, with “are: […]” for “are:”
Two diabetic/hypercholesterolemic groups were evaluated: 1. […] In addition blood cholesterol levels were maintained between 300 and 800 mg/dl in experimental animals, this range having been determined to provide a better test model. Blood cholesterol levels were monitored in all animals on a bimonthly basis, as shown in Table 4 and adjustments were made to the fat content of the feed accordingly, as shown in Table 2. […]

[2] = Body weight and behaviour observed during the study in DM/HC pig model; conditions: DM/HC pigs
Description: as §1, §2, §3
Domestic farm pigs, Yorkshire boars, ranging in weight between 25-35 kg were purchased from a local farm and placed in indoor housing under the care of a veterinarian. They were castrated 3-5 days in advance of the study start date. Test pigs were made diabetic by infusing one dose of streptozocin (125 mg/kg) IV in a period of 30 min. […] The blood glucose was measured using a glucometer every day before feeding for the first 14 days and then once a week. […]

[3] = 10 mg/kg/day SB-480848, n=6, vs DM/HC no treatment, 10 mg/kg/day
[4] = 10 mg/kg/day SB-480848, vs DM/HC no treatment
[5] = during the study period, compared to control non-treated animals

CCN(CC)CCN(Cc1ccc(-c2ccc(C(F)(F)F)cc2)cc1)C(=O)Cn1c(SCc2ccc(F)cc2)nc(=O)c2c1CCC2 [Lp-PLA2 inhibitor, 1-(N-(2-(diethylamino)ethyl)-N-(4-(4-trifluoromethylphenyl)benzyl)-aminocarbonylmethyl)-2-(4-fluorobenzyl)thio-5,6-trimethylenepyrimidin-4-one]
BBB leakage [1, 3]: prevents BBB leakage; also recorded: negligible | Ig binding to neurons [1, 4]: no Ig binding to neurons | Ig leakage from blood vessels [1, 4]: no Ig leakage from blood vessels | dendrite collapse [1, 4]: no dendrite collapse | sick neurons (Abeta-42; 10 mg/kg/day SB-480848, compared with non-treated animals): rarely observed | neuronal Abeta-42 immunoreactivity (Abeta-42; [3]): prevents Abeta-42 accumulation in neurons; also recorded: no neuronal Abeta-42 immunoreactivity | Abeta42 accumulation in vascular SMCs (Abeta-42; [4]): prevented Abeta42 accumulation in vascular SMCs | cerebrovascular amyloidosis (arterial Abeta-42 immunostaining) (Abeta-42; 10 mg/kg/day SB-480848, vs DM/HC no treatment, 10 mg/kg/day): little or no arterial Abeta-42 immunostaining; also recorded: minimized cerebrovascular amyloidosis | activation of glial cells (glial cells): less activation of glial cells | weight ([2]; 10 mg/kg/day SB-480848, end of study, from a baseline of 26.9 kg, control animals 50.9 kg (baseline 30.3 kg)): 62.5 kg | activity in the cage [2, 5]: increased activity in the cage | response to feeding and handling [2, 5]: tended to respond more alertly to feeding and handling | responsiveness to external stimuli [2, 5]: more responsive to external stimuli
